# Measurements published in patent US7799805B2, “Piperidine carboxylic acid amide derivatives” (Actelion Pharmaceuticals Ltd., priority 2005, dated 2010).
# Molecular target: T1, recombinant human renin (Homo sapiens, UniProt P00797)
# T1 sequence (P00797 67-406): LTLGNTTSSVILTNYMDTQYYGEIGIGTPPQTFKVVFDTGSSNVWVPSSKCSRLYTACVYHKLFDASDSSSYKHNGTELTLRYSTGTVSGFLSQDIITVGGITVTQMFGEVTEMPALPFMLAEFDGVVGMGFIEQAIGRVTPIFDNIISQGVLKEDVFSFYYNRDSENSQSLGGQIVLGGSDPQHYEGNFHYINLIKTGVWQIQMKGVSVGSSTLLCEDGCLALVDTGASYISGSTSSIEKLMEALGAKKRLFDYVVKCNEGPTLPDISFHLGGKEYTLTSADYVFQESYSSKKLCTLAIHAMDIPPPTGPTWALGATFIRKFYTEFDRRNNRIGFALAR
# Test: Primary renin inhibition assay: IC50 in buffer, 384 well MTP (AngI quantified by EIA)
# Method: Enzyme Immuno Assay (EIA) to Estimate AngI Accumulation and Renin Inhibition
# 96 well MTP (MaxiSorp™, Nunc) were coated with 200 μl conjugate and blocked with 250 μl blocking solution as above, except that the blocking solution contained 3% BSA.
# 1.3 AngI-EIA in 384 well MTP
# The AngI (1-10)/BSA coated MTP were washed 3 times with wash buffer (PBS 1×, 0.01% Tween 20) and filled with 75 μl of primary antibody solution (anti-AngI antiserum, pre-diluted 1:10 in horse serum), diluted to a final concentration of 1:100,000 in assay buffer (PBS 1×, 1 mM EDTA, 0.1% BSA, pH 7.4). 5 μl of the renin reaction (or standards in assay buffer) (see below) were added to the primary antibody solution and the plates were incubated overnight at 4° C. After the incubation the plates were washed 3 times with wash buffer and incubated with secondary antibody [anti-rabbit IgG, linked to horseradish peroxidase (Amersham Bioscience, NA 934V), diluted 1:2,000 in wash buffer] for 2 h at rt. […]
# In the second step, the accumulated AngI is measured by an immunological assay (enzyme immuno assay, EIA). […]
# Test compounds were dissolved and diluted in 100% DMSO and 2.5 μl added to the premix, then incubated at 37° C. for 3 h. At the end of the incubation period, 5 μl of the renin reaction (or standards in assay buffer) were transferred into EIA assays (as described above) and AngI produced by renin was quantified.
row,IC50,Structure (SMILES)
1,0.65 nM,"O=C([C@H]1[C@H]2CNC[C@@H](C[C@H]1c1ccc(CCCOc3c(F)ccc(F)c3Cl)cc1)N2)N(Cc1cccc(Cl)c1Cl)C1CC1 (racemic) [Example 1, (rac.)-(1R*,5S*,6R*,7R*)-7-{4-[3-(2-Chloro-3,6-difluoro-phenoxy)-propyl]-phenyl}-3,9-diaza-bicyclo[3.3.1]nonane-6-carboxylic acid cyclopropyl-(2,3-dichloro-benzyl)-amide]"
2,0.19 nM,"O=C([C@@H]1[C@@H](c2ccc(CCCOc3c(F)ccc(F)c3Cl)cc2)C[C@@H]2CNC[C@H]1N2)N(Cc1cccc(Cl)c1Cl)C1CC1 (racemic) [Example 2, (rac.)-(1R*,5S*,6R*,7S*)-7-{4-[3-(2-Chloro-3,6-difluoro-phenoxy)-propyl]-phenyl}-3,9-diaza-bicyclo[3.3.1]nonane-6-carboxylic acid cyclopropyl-(2,3-dichloro-benzyl)-amide]"
